Reference: patent publication US10526337B2, “Heteroaryl derivative or pharmaceutically acceptable salt thereof, preparation method therefor, and pharmaceutical composition for preventing or treating diseases associated with PI3 kinases, containing same as active ingredient” (KOREA RESEARCH INSTITUTE OF CHEMICAL TECHNOLOGY, priority 2015, dated 2020)

Assays:
[1] = molecular target: T1, PI3 Kinase (p110δ/p85α) (h) (Homo sapiens, UniProt O00329); experiment: Inhibition of phosphatidylinositol 3-kinase delta (PI3K δ), pAkt Western blotting in IgM-stimulated Raji cells; format: cell-based; conditions: ATP=10 uM, sample concentration=100 nM
T1 construct: endogenous in cells; host or cells: Raji
T1 sequence (O00329 whole entry): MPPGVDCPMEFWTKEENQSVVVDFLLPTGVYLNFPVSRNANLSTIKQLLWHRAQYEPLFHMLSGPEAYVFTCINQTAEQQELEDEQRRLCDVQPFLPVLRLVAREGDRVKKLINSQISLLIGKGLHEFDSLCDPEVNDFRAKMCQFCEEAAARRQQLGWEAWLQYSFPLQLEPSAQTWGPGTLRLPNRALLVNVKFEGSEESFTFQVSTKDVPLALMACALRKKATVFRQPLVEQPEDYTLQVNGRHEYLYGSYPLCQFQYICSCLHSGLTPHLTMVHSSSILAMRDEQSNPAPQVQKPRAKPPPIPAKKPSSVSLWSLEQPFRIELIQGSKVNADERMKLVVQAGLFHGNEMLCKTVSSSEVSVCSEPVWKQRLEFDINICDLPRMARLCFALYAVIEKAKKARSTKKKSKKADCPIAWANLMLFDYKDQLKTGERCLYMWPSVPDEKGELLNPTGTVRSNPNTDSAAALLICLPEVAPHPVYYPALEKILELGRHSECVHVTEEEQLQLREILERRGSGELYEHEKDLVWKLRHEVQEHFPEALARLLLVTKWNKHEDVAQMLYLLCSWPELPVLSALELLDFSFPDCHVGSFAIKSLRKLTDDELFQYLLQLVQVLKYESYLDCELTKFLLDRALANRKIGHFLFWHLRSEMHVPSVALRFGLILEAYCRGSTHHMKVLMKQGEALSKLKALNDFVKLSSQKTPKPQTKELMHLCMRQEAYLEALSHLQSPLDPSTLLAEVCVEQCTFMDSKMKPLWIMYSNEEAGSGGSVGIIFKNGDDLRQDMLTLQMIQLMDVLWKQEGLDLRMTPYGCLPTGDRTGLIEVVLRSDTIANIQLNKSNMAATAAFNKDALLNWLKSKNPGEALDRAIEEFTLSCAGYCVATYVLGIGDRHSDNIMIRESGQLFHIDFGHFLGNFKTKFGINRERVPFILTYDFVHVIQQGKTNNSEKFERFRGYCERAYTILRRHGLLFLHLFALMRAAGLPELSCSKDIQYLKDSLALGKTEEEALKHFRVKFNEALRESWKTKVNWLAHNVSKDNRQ
T1 sequence (P27986 whole entry partner): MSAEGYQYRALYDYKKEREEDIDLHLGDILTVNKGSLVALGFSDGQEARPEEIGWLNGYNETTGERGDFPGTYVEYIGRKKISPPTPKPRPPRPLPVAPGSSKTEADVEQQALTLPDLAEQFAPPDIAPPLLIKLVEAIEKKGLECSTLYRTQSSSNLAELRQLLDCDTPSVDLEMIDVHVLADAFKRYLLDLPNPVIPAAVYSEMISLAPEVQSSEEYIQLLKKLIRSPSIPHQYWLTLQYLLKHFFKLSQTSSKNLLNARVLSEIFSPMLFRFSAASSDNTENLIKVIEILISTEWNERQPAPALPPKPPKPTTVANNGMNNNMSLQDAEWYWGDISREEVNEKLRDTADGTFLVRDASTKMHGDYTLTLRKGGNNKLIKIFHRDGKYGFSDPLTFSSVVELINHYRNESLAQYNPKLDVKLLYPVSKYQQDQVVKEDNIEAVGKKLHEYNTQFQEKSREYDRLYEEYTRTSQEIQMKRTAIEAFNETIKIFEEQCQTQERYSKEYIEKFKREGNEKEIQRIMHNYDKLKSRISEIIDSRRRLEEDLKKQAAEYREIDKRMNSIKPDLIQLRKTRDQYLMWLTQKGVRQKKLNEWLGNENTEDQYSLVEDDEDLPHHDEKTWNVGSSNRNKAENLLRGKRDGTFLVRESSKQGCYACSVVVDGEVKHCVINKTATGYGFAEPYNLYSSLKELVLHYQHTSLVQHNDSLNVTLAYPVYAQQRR
Method: (§1) The stimulated cells were transferred in a 1.5 mL tube, followed by centrifugation at 3000 rpm for 1 minute. 100 μL of RIPA buffer (radioimmunoprecipitation assay buffer, 50 mM Tris-HCl, 5 mM EDTA, 150 mM NaCl, 1% NP-40, 1 mM PMSF, pH 8.0; ELPIS, Korea) was added thereto, which was stored in a 4° C. refrigerator for 12 hours. Centrifugation was performed at 4° C. at 14,000 rpm for 20 minutes. The supernatant was transferred into a new 1.5 mL tube. Protein was quantified by BCA (bicinchoninic acid) method and samples were prepared. The composition of the sample was as follows: sample buffer (ELPIS, EBA-1052) 5×, protein 10 μg, and 1× sample buffer to make the total volume 20 μL. The sample was heated at 100° C. for 5 minutes. The evaporated water vapor was condensed in a refrigerator. The liquid stained on the wall was fallen down by centrifugation for a few seconds. The sample proceeded to 10% SDS (Sodium Dodecyl Sulfate) acrylamide gel for separation. The separated protein was transferred onto PVDF (poly-vinyl difluoride) membrane, followed by reaction with pAkt (phospho protein kinase B) antibody (Ser473 or Thr308; Cell signaling, 9271s or 13038s) for 12 hours at 4° C. The membrane was washed with TBST (Tris-Buffered Saline with Tween 20, 10 mM Tris-HCl, pH 7.5, 150 mM NaCl, 0.1% Tween-20) three times for 5 minutes each, to which the secondary antibody (rabbit antibody, Santacruz, sc-2004) was added, followed by reaction at room temperature for 2 hours. The membrane was washed with TBST three times for 10 minutes each, to which ECL (enhanced chemiluminescence, Thermo, NCI34095KR) was sprayed. Bands were investigated by using LAS-3000.
The inhibition of phosphatidylinositol 3 kinase delta (PI3K δ) by those compounds prepared in Examples 1˜98 was investigated by the following experiment. The inhibition activity of each compound was measured in the following conditions: ATP=10 uM, and sample concentration=100 nM.
(§2) Raji cells cultured in RPMI1640 (Hyclone, SH30027.02) supplemented with 10% fetal bovine serum (Hyclon, USA) were distributed in a 12-well plate at the density of 1,000,000 cells/well. The cells were stabilized in a 37° C. CO2 for 24 hours and then treated with each compound for 1 and half hours. The cells were treated with 0.25 μg/mL of IgM (immunoglobulin M, Southern Biotech, USA) to increase the intracellular activity of PI3K delta. 30 minutes later, the medium was discarded and the cells were washed with cold PBS (phosphate buffered saline, Gibco, 14190-250). PBS was then eliminated completely by using a pipette. Western blotting was performed according to the same manner as described in step 2 of Experimental Example 1 to evaluate the intracellular PI3K delta activity.

PI3 Kinase (p120γ) (h) = molecular target: T2, PI3 Kinase (p120γ) (h) (Homo sapiens, UniProt P48736); experiment: Inhibition of phosphatidylinositol 3-kinase gamma (PI3K γ), pAkt Western blotting in C5a-stimulated RAW264.7 macrophages; format: cell-based, mouse; conditions: ATP=10 uM, sample concentration=100 nM
T2 construct: endogenous in cells; host or cells: RAW264.7
T2 sequence (P48736 whole entry): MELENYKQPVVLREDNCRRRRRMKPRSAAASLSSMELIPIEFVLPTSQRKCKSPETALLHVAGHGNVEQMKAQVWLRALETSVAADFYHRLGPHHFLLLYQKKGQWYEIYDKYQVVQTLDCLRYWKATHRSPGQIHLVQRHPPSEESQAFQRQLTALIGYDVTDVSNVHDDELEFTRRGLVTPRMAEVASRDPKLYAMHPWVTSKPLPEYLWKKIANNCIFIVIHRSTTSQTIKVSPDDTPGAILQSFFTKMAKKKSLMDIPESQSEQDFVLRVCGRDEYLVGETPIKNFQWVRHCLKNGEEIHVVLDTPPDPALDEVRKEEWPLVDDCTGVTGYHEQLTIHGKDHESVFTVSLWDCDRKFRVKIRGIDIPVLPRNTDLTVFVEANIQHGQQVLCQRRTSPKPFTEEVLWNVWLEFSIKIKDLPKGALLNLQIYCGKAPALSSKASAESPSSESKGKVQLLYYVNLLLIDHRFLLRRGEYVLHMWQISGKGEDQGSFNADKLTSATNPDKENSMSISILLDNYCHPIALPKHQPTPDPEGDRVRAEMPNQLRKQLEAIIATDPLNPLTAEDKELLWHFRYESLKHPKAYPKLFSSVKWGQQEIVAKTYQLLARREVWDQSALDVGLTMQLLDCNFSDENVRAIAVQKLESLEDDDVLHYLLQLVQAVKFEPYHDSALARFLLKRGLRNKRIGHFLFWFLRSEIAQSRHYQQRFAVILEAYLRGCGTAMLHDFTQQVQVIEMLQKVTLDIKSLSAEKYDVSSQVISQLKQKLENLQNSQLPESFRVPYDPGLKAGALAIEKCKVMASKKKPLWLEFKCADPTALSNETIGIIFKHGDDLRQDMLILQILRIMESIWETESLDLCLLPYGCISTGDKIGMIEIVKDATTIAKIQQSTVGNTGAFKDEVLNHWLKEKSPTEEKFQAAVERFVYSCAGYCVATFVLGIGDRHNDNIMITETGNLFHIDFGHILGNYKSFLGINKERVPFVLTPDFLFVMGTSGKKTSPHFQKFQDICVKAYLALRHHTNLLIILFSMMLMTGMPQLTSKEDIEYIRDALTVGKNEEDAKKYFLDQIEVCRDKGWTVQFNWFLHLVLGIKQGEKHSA
Method: as §1
The inhibition of phosphatidylinositol 3 kinase gamma (PI3K γ) by those compounds prepared in Examples 1˜98 was investigated by the following experiment. The inhibition activity of each compound was measured in the following conditions: ATP=10 uM, and sample concentration=100 nM.
as §2, with “Macrophages (RAW264.7)” for “Raji cells”, “DMEM (Dulbecco's Modified Eagle Medium, Hyclon, SH30243.01)” for “RPMI1640 (Hyclone, SH30027.02)”, “10 ng/mL” for “0.25 μg/mL”, “C5a (complement component 5a, 10 μg/mL; R&D, 2150-C5)” for “IgM (immunoglobulin M, Southern Biotech, USA)”, “gamma. 5” for “delta. 30”, “gamma” for “delta”

SMILES | IC50 [1] [nM] | IC50 (PI3 Kinase (p120γ) (h)) [nM]
C[C@H](Nc1ncnc2[nH]ccc(=O)c12)c1nc2ccc(F)cc2c(=O)n1Cc1ccccn1 [Example 32, (S)-4-((1-(6-fluoro-4-oxo-3-(pyridine-2-ylmethyl)-3,4-dihydroquinazoline-2-yl)ethyl)amino)pyrido[2,3-d]pyrimidine-5(8H)-one] | > 500 | –
C[C@H](Nc1ncnc2c1C(=O)N(C)CN2)c1nc2cccc(Cl)c2c(=O)n1-c1cccnc1 [Example 35, (S)-5-((1-(5-chloro-4-oxo-3-(pyridine-3-yl)-3,4-dihydroquinazoline-2-yl)ethyl)amino)-3-methyl-2,3-dihydropyrimido[4,5-d]pyrimidine-4(1H)-one] | 10 to 500 | 10 to 500
CC(Nc1ncnc2c1C(=O)N(C)CN2)c1cc2ccccc2nc1-c1ccccc1 (stereo not drawn) [Example 39, 3-methyl-5-((1-(2-phenylquinoline-3-yl)ethyl)amino)-2,3-dihydropyrimido[4,5-d]pyrimidine-4(1H)-one] | 10 to 500 | 10 to 500
C[C@H](Nc1ncnc2c1C(=O)N(C)CN2)c1cc2ccccc2nc1-c1ccccc1 [Example 39-1, (S)-3-methyl-5-((1-(2-phenylquinoline-3-yl)ethyl)amino)-2,3-dihydropyrimido[4,5-d]pyrimidine-4(1H)-one] | 10 to 500 | < 10
CC[C@H](Nc1ncnc2c1C(=O)N(C)CN2)c1nc2cccc(F)c2c(=O)n1-c1ccccc1 [Example 41, (S)-5-((1-(5-fluoro-4-oxo-3-phenyl-3,4-dihydroquinazoline-2-yl)propyl)amino)-3-methyl-2,3-dihydropyrimido[4,5-d]pyrimidine-4(1H)-one] | 10 to 500 | 10 to 500
CN1CNc2ncnc(N3CCC[C@H]3c3nc4cccc(Cl)c4c(=O)n3-c3ccccc3)c2C1=O [Example 42, (S)-5-(2-(5-chloro-4-oxo-3-phenyl-3,4-dihydroquinazoline-2-yl)pyrrolidine-1-yl)-3-methyl-2,3-dihydropyrimido[4,5-d]pyrimidine-4(1H)-one] | 10 to 500 | 10 to 500
CN1CNc2ncnc(N3CCC[C@H]3c3nc4cccc(Cl)c4c(=O)n3-c3cccnc3)c2C1=O [Example 43, (S)-5-(2-(5-chloro-4-oxo-3-(pyridine-3-yl)-3,4-dihydroquinazoline-2-yl)pyrrolidine-1-yl)-3-methyl-2,3-dihydropyrimido[4,5-d]pyrimidine-4(1H)-one] | > 500 | > 500
CN1CNc2ncnc(N3CCC[C@H]3c3nc4cccc(Cl)c4c(=O)n3-c3cccc(F)c3)c2C1=O [Example 44, (S)-5-(2-(5-chloro-3-(3-fluorophenyl)-4-oxo-3,4-dihydroquinazoline-2-yl)pyrrolidine-1-yl)-3-methyl-2,3-dihydropyrimido[4,5-d]pyrimidine-4(1H)-one] | < 10 | 10 to 500
Cc1cccc(-n2c([C@@H]3CCCN3c3ncnc4c3C(=O)N(C)CN4)nc3cccc(Cl)c3c2=O)c1 [Example 45, (S)-5-(2-(5-chloro-4-oxo-3-(m-tolyl)-3,4-dihydroquinazoline-2-yl)pyrrolidine-1-yl)-3-methyl-2,3-dihydropyrimido[4,5-d]pyrimidine-4(1H)-one] | 10 to 500 | 10 to 500
CN1CNc2ncnc(N3CCC[C@H]3c3nn4ccc(Cl)c4c(=O)n3-c3ccccc3)c2C1=O [Example 47, (S)-5-(2-(5-chloro-4-oxo-3-phenyl-3,4-dihydropyrrolo[2,1-f][1,2,4]triazine-2-yl)pyrrolidine-1-yl)-3-methyl-2,3-dihydropyrimido[4,5-d]pyrimidine-4(1H)-one] | 10 to 500 | 10 to 500

The remaining lines, values ahead:

IC50 [1] [nM] | IC50 (PI3 Kinase (p120γ) (h)) [nM] | SMILES
< 10 | 10 to 500 | C[C@H](Nc1ncnc2c1C(=O)N(C)CN2)c1nc2cccc(Cl)c2c(=O)n1-c1ccccc1 [Example 34, (S)-5-((1-(5-chloro-4-oxo-3-phenyl-3,4-dihydroquinazoline-2-yl)ethyl)amino)-3-methyl-2,3-dihydropyrimido[4,5-d]pyrimidine-4(1H)-one]
< 10 | 10 to 500 | C[C@H](Nc1ncnc2c1C(=O)N(C)CN2)c1nc2cccc(Cl)c2c(=O)n1-c1cccc(F)c1 [Example 36, (S)-5-((1-(5-chloro-3-(3-fluorophenyl)-4-oxo-3,4-dihydroquinazoline-2-yl)ethyl)amino)-3-methyl-2,3-dihydropyrimido[4,5-d]pyrimidine-4(1H)-one]
< 10 | 10 to 500 | Cc1cccc(-n2c([C@H](C)Nc3ncnc4c3C(=O)N(C)CN4)nc3cccc(Cl)c3c2=O)c1 [Example 37, (S)-5-((1-(5-chloro-4-oxo-3-(m-tolyl)-3,4-dihydroquinazoline-2-yl)ethyl)amino)-3-methyl-2,3-dihydropyrimido[4,5-d]pyrimidine-4(1H)-one]
< 10 | 10 to 500 | CN1CNc2ncnc(N3CCC[C@H]3c3cc4cccc(Cl)c4c(=O)n3-c3ccccc3)c2C1=O [Example 46, (S)-5-(2-(8-chloro-1-oxo-2-phenyl-1,2-dihydroisoquinoline-3-yl)pyrrolidine-1-yl)-3-methyl-2,3-dihydropyrimido[4,5-d]pyrimidine-4(1H)-one]
< 10 | < 10 | C[C@H](Nc1nc(N)nc2c1C(=O)N(C)CN2)c1nc2cccc(Cl)c2c(=O)n1-c1ccccc1 [Example 48, (S)-7-amino-5-((1-(5-chloro-4-oxo-3-phenyl-3,4-dihydroquinazoline-2-yl)ethyl)amino)-3-methyl-2,3-dihydropyrimido[4,5-d]pyrimidine-4(1H)-one]
< 10 | 10 to 500 | C[C@H](Nc1nc(N)nc2c1C(=O)N(C)CN2)c1nc2cccc(Cl)c2c(=O)n1-c1cccnc1 [Example 49, (S)-7-amino-5-((1-(5-chloro-4-oxo-3-(pyridine-3-yl)-3,4-dihydroquinazoline-2-yl)ethyl)amino)-3-methyl-2,3-dihydropyrimido[4,5-d]pyrimidine-4(1H)-one]
< 10 | 10 to 500 | C[C@H](Nc1nc(N)nc2c1C(=O)N(C)CN2)c1nc2cccc(Cl)c2c(=O)n1-c1cccc(F)c1 [Example 50, (S)-7-amino-5-((1-(5-chloro-3-(3-fluorophenyl)-4-oxo-3,4-dihydroquinazoline-2-yl)ethyl)amino)-3-methyl-2,3-dihydropyrimido[4,5-d]pyrimidine-4(1H)-one]
< 10 | 10 to 500 | Cc1cccc(-n2c([C@H](C)Nc3nc(N)nc4c3C(=O)N(C)CN4)nc3cccc(Cl)c3c2=O)c1 [Example 51, (S)-7-amino-5-((1-(5-chloro-4-oxo-3-(m-tolyl)-3,4-dihydroquinazoline-2-yl)ethyl)amino)-3-methyl-2,3-dihydropyrimido[4,5-d]pyrimidine-4(1H)-one]
< 10 | < 10 | C[C@H](Nc1nc(N)nc2c1C(=O)N(C)CN2)c1cc2cccc(Cl)c2c(=O)n1-c1ccccc1 [Example 52, (S)-7-amino-5-((1-(8-chloro-1-oxo-2-phenyl-1,2-dihydroisoquinoline-3-yl)ethyl)amino)-3-methyl-2,3-dihydropyrimido[4,5-d]pyrimidine-4(1H)-one]
10 to 500 | 10 to 500 | C[C@H](Nc1nc(N)nc2c1C(=O)N(C)CN2)c1cc2ccccc2nc1-c1ccccc1 [Example 53, (S)-7-amino-3-methyl-5-((1-(2-phenylquinoline-3-yl)ethyl)amino)-2,3-dihydropyrimido[4,5-d]pyrimidine-4(1H)-one]
